# According to patent publication US9138421B2, “Platinum compounds for treating cell proliferative diseases, preparation method and use thereof” (priority 2011, dated 2015):
# Marks after values point to notes of the source that are not given here.
# What was measured:
# lung cancer H292 = assay: MTT cytotoxicity, lung cancer H292; type: cell-based; settings: n = 6
# Method: (§1) The toxic action of Embodiment platinum containing compounds was observed on tumor cells by MTT colorimetric method. Several kinds of tumor cells in exponential growth phase were prepared into single cell suspension, inoculated on 96 pore plat at the density of 4×10^4/hole, cultivated for 24 hours to enable to adhere to wall with 1640 culture medium containing 10% fetal calf serum (complete medium) at 37° C.; the final culture volume was 100 μl. Cell morphology was observed after culture for 24 hours.
# testis cell ST = assay: MTT cytotoxicity, testis cell ST; type: cell-based; settings: n = 6
# Method: as §1
# [1] = tested on: lung cancer Lewis cell line; assay: In vivo antitumor activity, lung cancer Lewis in nude mice; settings: 15 mg/kg, every 2 days, 4 times, end 30 days after inoculation
# gastric cancer MGC803 = assay: MTT cytotoxicity, gastric cancer MGC803; type: cell-based; settings: n = 6
# Method: as §1
# esophagus cancer ECA109 = assay: MTT cytotoxicity, esophagus cancer ECA109; type: cell-based; settings: n = 6
# Method: as §1
# [2] = tested on: colon cancer SW480 cell line; assay: In vivo antitumor activity, colon cancer SW480 in nude mice (2), dose series; settings: 3 days, tumor weighed 24 hours after drug discontinuance
# [3] = tested on: colon cancer SW480 cell line; assay: In vivo antitumor activity, colon cancer SW480 in nude mice (1); settings: SW480, 4 mg/kg, every other day, 4 times, tumor weighed after 10 days
# Description: The calculation formula of tumor inhabitation rate is: […]
# colon cancer SW480 = assay: MTT cytotoxicity, colon cancer SW480; type: cell-based; settings: n = 6
# Method: as §1
# [4] = tested on: Pulmonary epithelial cell BEAS-2B; assay: MTT cytotoxicity, pulmonary epithelial cell BEAS-2B; type: cell-based; settings: n = 6
# Method: as §1
# lung cancer Lewis = assay: MTT cytotoxicity, lung cancer Lewis; type: cell-based; settings: n = 6
# Method: as §1
# normal mice = assay: Acute toxic effect of platinum complex on normal mice (LD50); type: in vivo, Kunming mice; settings: single intravenous administration in 5% glucose, 14 days observation, Bliss method
# Method: Test 1: Acute Toxic Effect of Platinum Complex on Normal Mice
# Embodiment platinum compound was dissolved with 5% glucose solution. […] Mortality and toxicity were observed after administration.
# Solubility in water = settings: in water
# [5] = tested on: lung cancer H292 cell line; assay: In vivo antitumor activity, lung cancer H292 in nude mice; settings: H292, 15 mg/kg, every 2 days, 4 times, end 30 days after inoculation
Compound,IC50 (lung cancer H292),IC50 (testis cell ST),tumor inhibition rate (%) [1],IC50 (gastric cancer MGC803),IC50 (esophagus cancer ECA109),"tumor inhibition rate (%) (x ±SD) ([2]; SW480, 3 mg/kg)","tumor inhibition rate (%) (x ±SD) ([2]; SW480, 5 mg/kg)",tumor inhibition rate (%) (x ±SD) [3],IC50 (colon cancer SW480),IC50 [4],IC50 (lung cancer Lewis),LD50 value (normal mice),solubility (Solubility in water),tumor inhibition rate (%) [5],"tumor inhibition rate (%) (x ±SD) ([2]; SW480, 10 mg/kg)","tumor inhibition rate (%) (x ±SD) ([2]; SW480, 15 mg/kg)"
"2-(2-diethylamine ethyl)-malonic.cis-1,4-(trans-2,3-cyclobutyl)-butanediamine platinum (II) phosphate [compound 26]",136 µM,312 µM,72.4 ± 16.78%,234 µM,163 µM,–,–,–,–,–,–,–,–,–,–,–
"N.N.[Cl][Pt][Cl] [cisplatin, Cis-dichlorodiamminoplatinum, reference compound]",–,–,–,–,–,62.9 ± 9.01%,71.1 ± 10.76%,–,–,–,–,–,–,–,–,–
"CCCN(CCC)CCC1C(=O)[O][Pt]([NH2])([NH2])[O]C1=O.O=P(O)(O)O [compound 7, 2-(2-di-n-propylamineethyl)-malonic-cis-diamino platinum (II) phosphate]",124 µM,–,–,–,–,–,–,28.5 ± 7.65 %,51 µM,75 µM,128 µM,–,–,–,–,–
"CCN(CC)CCC1C(=O)[O][Pt]2([NH]C3CCC(CC3)[NH]2)[O]C1=O.O=P(O)(O)O (stereo not drawn) [compound 27, [2-(2-diethylamine ethyl)-malonato].[cis-1,4-cyclohexyldiamine] platinum (II) phosphate]",158 µM,360 µM,71.3 ± 10.54%,453 µM,350 µM,–,–,–,–,–,–,0.729 mmol/kg,145 mg/mL,–,–,–
"[2-(2-amino ethyl)-malonato].[cis-(1,2-trans-cyclohexamethylene diamine)]platinum (II) phosphate [compound 9]",63 µM,–,–,–,–,–,–,–,71 µM,57 µM,69 µM,0.724 mmol/kg,275 mg/mL,79.2 ± 14.99 %,–,–
"[2-(2-diethylamine ethyl)-malonato].[cis-1,3-(2,2-(4-oxacyclohexyl))-propyldiamine]platinum (II) phosphate [compound 28]",99 µM,138 µM,73.3 ± 17.92%,162 µM,256 µM,–,–,–,–,–,–,0.767 mmol/kg,–,–,–,–
"[2-(2-dimethylamine ethyl)-malonato].[cis-trans-1,2-diaminomethylcyclobutane]platinum (II) phosphate [compound 25]",53 µM,114 µM,80.1 ± 9.65 %,341 µM,196 µM,–,–,–,–,–,–,0.520 mmol/kg,–,–,–,–
"[2-(2-ethylamine ethyl)-malonato].[cis-(1,2-trans-cyclohexamethylene diamine)]platinum (II) phosphate [compound 12]",241 µM,–,–,–,–,–,–,–,203 µM,15 µM,57 µM,0.609 mmol/kg,221 mg/mL,76.3 ± 20.67*^ %,–,–
[2-(3-di-n-propylamine propyl)-malonato].[cis-diamine] platinum (II) mesylate [compound 8],201 µM,–,–,–,–,40.4 ± 5.02 %,73.6 ± 9.18%,29.7 ± 8.81 %,20 µM,49 µM,57 µM,0.806 mmol/kg,–,–,74.4 ± 12.25%,82.8 ± 10.07 %
"[2-(3-dimethylamine propyl)-malonato].[cis-(1,2-trans-cyclohexamethylene diamine)]platinum (II) phosphate [compound 11]",6 µM,–,–,–,–,–,–,–,57 µM,168 µM,213 µM,0.509 mmol/kg,–,35.9 ± 7.13 %,–,–
